{"source": "patent US20120244567A1", "about": "“HUMAN EMBRYONIC STEM CELLS FOR HIGH THROUGHOUT DRUG SCREENING” (BUCK INSTITUTE FOR RESEARCH ON AGING, priority 2009, published 2012)", "tested_on": "NSCs", "procedure": "RNAs isolated from NSCs and neurons with and without drug treatments were hybridized to Illumina HumanRef-8 BeadChip (Illumina, Inc., San Diego, Calif., performed by Microarray core facility at the Burnham Institute for Medical Research). The Illumina array data were normalized by the quantile method, and then transformed log 2 ratio values for a zero mean for expression values of each gene across all samples. The statistical and bioinformatics analyses were conducted by using R and the bioconductor package (www.bioconductor.org). The gene set enrichment analysis was conducted using the GSEA software (www.broad.mit.edu/gsea).\nThe comparative results are then measured by a non-parametric, running sum statistic termed the enrichment score. The enrichment score significance is assessed by 1,000 permutation tests to compute the enrichment p-value.", "note": "Where a name gives a salt, the structure may show the parent alone."}
{"smiles": "CCCCc1oc2ccccc2c1C(=O)c1cc(I)c(OCCN(CC)CC)c(I)c1", "note": "[Amiodarone Hydrochloride]", "values": [{"measurement": "Nes: Acetyltransferase Activity", "setting": "Enriched In Untreated Nscs", "result": "−1.239"}, {"measurement": "Nes: Amine Transmembrane Transporter Activity", "setting": "Enriched In Untreated Nscs", "result": "−0.9002"}, {"measurement": "Nes: Amino Acid Transmembrane Transporter Activity", "setting": "Enriched In Untreated Nscs", "result": "−0.9455"}, {"measurement": "Nes: Atp Dependent Helicase Activity", "setting": "Enriched In Untreated Nscs", "result": "−1.499"}, {"measurement": "Nes: Atp Dependent Rna Helicase Activity", "setting": "Enriched In Untreated Nscs", "result": "−1.626"}, {"measurement": "Nes: Atpase Activity", "setting": "Enriched In Untreated Nscs", "result": "−0.8253"}, {"measurement": "Nes: Atpase Activity Coupled", "setting": "Enriched In Untreated Nscs", "result": "−1.068"}, {"measurement": "Nes: Atpase Activity Coupled To Movement Of Substances", "setting": "Enriched In Untreated Nscs", "result": "−0.3743"}, {"measurement": "Nes: Atpase Activity Coupled To Transmembrane Movement Of Ions", "setting": "Enriched In Untreated Nscs", "result": "−0.543"}, {"measurement": "Nes: Calcium Ion Binding", "setting": "Enriched In Untreated Nscs", "result": "−1.593"}, {"measurement": "Nes: Carbohydrate Binding", "setting": "Enriched In Untreated Nscs", "result": "−0.9729"}, {"measurement": "Nes: Carboxylic Acid Transmembrane Transporter Activity", "setting": "Enriched In Untreated Nscs", "result": "−0.8373"}, {"measurement": "Nes: Cation Binding", "setting": "Enriched In Untreated Nscs", "result": "−1.033"}, {"measurement": "Nes: Chromatin Binding", "setting": "Enriched In Untreated Nscs", "result": "−1.015"}, {"measurement": "Nes: Cofactor Binding", "setting": "Enriched In Untreated Nscs", "result": "−0.9326"}, {"measurement": "Nes: Cytokine Activity", "setting": "Enriched In Untreated Nscs", "result": "−1.381"}, {"measurement": "Nes: Cytokine Binding", "setting": "Enriched In Untreated Nscs", "result": "−1.174"}, {"measurement": "Nes: Damaged Dna Binding", "setting": "Enriched In Untreated Nscs", "result": "−1.1681"}, {"measurement": "Nes: Dna Dependent Atpase Activity", "setting": "Enriched In Untreated Nscs", "result": "−1.2"}, {"measurement": "Nes: Dna Helicase Activity", "setting": "Enriched In Untreated Nscs", "result": "−0.5542"}, {"measurement": "Nes: Double Stranded Dna Binding", "setting": "Enriched In Untreated Nscs", "result": "−0.4584"}, {"measurement": "Nes: Electron Carrier Activity", "setting": "Enriched In Untreated Nscs", "result": "−0.6307"}, {"measurement": "Nes: Enzyme Activator Activity", "setting": "Enriched In Untreated Nscs", "result": "−1.024"}, {"measurement": "Nes: Exopeptidase Activity", "setting": "Enriched In Untreated Nscs", "result": "−0.915"}, {"measurement": "Nes: Glycosaminoglycan Binding", "setting": "Enriched In Untreated Nscs", "result": "−0.9127"}, {"measurement": "Nes: Growth Factor Activity", "setting": "Enriched In Untreated Nscs", "result": "−1.254"}, {"measurement": "Nes: Gtp Binding", "setting": "Enriched In Untreated Nscs", "result": "−0.9695"}, {"measurement": "Nes: Gtpase Activity", "setting": "Enriched In Untreated Nscs", "result": "−0.811"}, {"measurement": "Nes: Guanyl Nucleotide Binding", "setting": "Enriched In Untreated Nscs", "result": "−1.265"}, {"measurement": "Nes: Helicase Activity", "setting": "Enriched In Untreated Nscs", "result": "−1.374"}, {"measurement": "Nes: Heparin Binding", "setting": "Enriched In Untreated Nscs", "result": "−1.015"}, {"measurement": "Nes: Hormone Activity", "setting": "Enriched In Untreated Nscs", "result": "−1.196"}, {"measurement": "Nes: Hydrogen Ion Transmembrane Transporter Activity", "setting": "Enriched In Untreated Nscs", "result": "−1.077"}, {"measurement": "Nes: Hydrolase Activity Acting On Acid Anhydrides", "setting": "Enriched In Untreated Nscs", "result": "−0.9907"}, {"measurement": "Nes: Hydrolase Activity Acting On Acid Anhydrides Catalyzing Transmembrane Movement Of Substances", "setting": "Enriched In Untreated Nscs", "result": "−0.4097"}, {"measurement": "Nes: Hydrolase Activity Acting On Carbon Nitrogen But Not Peptide Bonds", "setting": "Enriched In Untreated Nscs", "result": "−0.7823"}, {"measurement": "Nes: Ion Binding", "setting": "Enriched In Untreated Nscs", "result": "−1.044"}, {"measurement": "Nes: Kinase Activity", "setting": "Enriched In Untreated Nscs", "result": "−0.9611"}, {"measurement": "Nes: Kinase Inhibitor Activity", "setting": "Enriched In Untreated Nscs", "result": "−0.8002"}, {"measurement": "Nes: Kinase Regulator Activity", "setting": "Enriched In Untreated Nscs", "result": "−0.9286"}, {"measurement": "Nes: Lipase Activity", "setting": "Enriched In Untreated Nscs", "result": "−1.055"}, {"measurement": "Nes: Lipid Binding", "setting": "Enriched In Untreated Nscs", "result": "−1.147"}, {"measurement": "Nes: Magnesium Ion Binding", "setting": "Enriched In Untreated Nscs", "result": "−1.1144"}, {"measurement": "Nes: Metallopeptidase Activity", "setting": "Enriched In Untreated Nscs", "result": "−1.06"}, {"measurement": "Nes: Microtubule Binding", "setting": "Enriched In Untreated Nscs", "result": "−0.7143"}, {"measurement": "Nes: N Acetyltransferase Activity", "setting": "Enriched In Untreated Nscs", "result": "−1.282"}, {"measurement": "Nes: N Acyltransferase Activity", "setting": "Enriched In Untreated Nscs", "result": "−1.201"}, {"measurement": "Nes: Nucleobase Nucleoside Nucleotide Kinase Activity", "setting": "Enriched In Untreated Nscs", "result": "−1.417"}, {"measurement": "Nes: Nucleoside Triphosphatase Activity", "setting": "Enriched In Untreated Nscs", "result": "−0.8995"}, {"measurement": "Nes: Nucleotidyltransferase Activity", "setting": "Enriched In Untreated Nscs", "result": "−0.6782"}, {"measurement": "Nes: Organic Acid Transmembrane Transporter Activity", "setting": "Enriched In Untreated Nscs", "result": "−0.8193"}, {"measurement": "Nes: Oxidoreductase Activity Acting On Nadh Or Nadph", "setting": "Enriched In Untreated Nscs", "result": "−1.092"}, {"measurement": "Nes: Oxidoreductase Activity Acting On The Ch Ch Group Of Donors", "setting": "Enriched In Untreated Nscs", "result": "−1.2992"}, {"measurement": "Nes: Pattern Binding", "setting": "Enriched In Untreated Nscs", "result": "−0.8999"}, {"measurement": "Nes: Peptide Binding", "setting": "Enriched In Untreated Nscs", "result": "−0.9386"}, {"measurement": "Nes: Phospholipid Binding", "setting": "Enriched In Untreated Nscs", "result": "−1.255"}, {"measurement": "Nes: Phosphotransferase Activity Alcohol Group As Acceptor", "setting": "Enriched In Untreated Nscs", "result": "−0.929"}, {"measurement": "Nes: Phosphotransferase Activity Phosphate Group As Acceptor", "setting": "Enriched In Untreated Nscs", "result": "−1.665"}, {"measurement": "Nes: Polysaccharide Binding", "setting": "Enriched In Untreated Nscs", "result": "−0.9675"}, {"measurement": "Nes: Primary Active Transmembrane Transporter Activity", "setting": "Enriched In Untreated Nscs", "result": "−0.3858"}, {"measurement": "Nes: Protein Dimerization Activity", "setting": "Enriched In Untreated Nscs", "result": "−1.017"}, {"measurement": "Nes: Protein Heterodimerization Activity", "setting": "Enriched In Untreated Nscs", "result": "−1.3399"}, {"measurement": "Nes: Protein Homodimerization Activity", "setting": "Enriched In Untreated Nscs", "result": "−0.801"}, {"measurement": "Nes: Protein Kinase Inhibitor Activity", "setting": "Enriched In Untreated Nscs", "result": "−0.7805"}, {"measurement": "Nes: Protein Kinase Regulator Activity", "setting": "Enriched In Untreated Nscs", "result": "−0.8809"}, {"measurement": "Nes: Protein N Terminus Binding", "setting": "Enriched In Untreated Nscs", "result": "−0.5542"}, {"measurement": "Nes: Pyrophosphatase Activity", "setting": "Enriched In Untreated Nscs", "result": "−1.053"}, {"measurement": "Nes: Ras Gtpase Binding", "setting": "Enriched In Untreated Nscs", "result": "−0.9567"}, {"measurement": "Nes: Receptor Activity", "setting": "Enriched In Untreated Nscs", "result": "−1.044"}, {"measurement": "Nes: Receptor Binding", "setting": "Enriched In Untreated Nscs", "result": "−1.0604"}, {"measurement": "Nes: Receptor Signaling Protein Serine Threonine Kinase Activity", "setting": "Enriched In Untreated Nscs", "result": "−0.7954"}, {"measurement": "Nes: Rhodopsin Like Receptor Activity", "setting": "Enriched In Untreated Nscs", "result": "−1.049"}, {"measurement": "Nes: Rna Binding", "setting": "Enriched In Untreated Nscs", "result": "−0.6659"}, {"measurement": "Nes: Rna Dependent Atpase Activity", "setting": "Enriched In Untreated Nscs", "result": "−1.8058"}, {"measurement": "Nes: Rna Helicase Activity", "setting": "Enriched In Untreated Nscs", "result": "−1.68"}, {"measurement": "Nes: Signal Sequence Binding", "setting": "Enriched In Untreated Nscs", "result": "−0.8286"}, {"measurement": "Nes: Structural Constituent Of Ribosome", "setting": "Enriched In Untreated Nscs", "result": "−0.6343"}, {"measurement": "Nes: Transferase Activity Transferring Acyl Groups", "setting": "Enriched In Untreated Nscs", "result": "−0.9146"}, {"measurement": "Nes: Transferase Activity Transferring Hexosyl Groups", "setting": "Enriched In Untreated Nscs", "result": "−0.8814"}, {"measurement": "Nes: Transferase Activity Transferring Phosphorus Containing Groups", "setting": "Enriched In Untreated Nscs", "result": "−1.002"}, {"measurement": "Nes: Transmembrane Receptor Activity", "setting": "Enriched In Untreated Nscs", "result": "−1.132"}, {"measurement": "Nes: Tubulin Binding", "setting": "Enriched In Untreated Nscs", "result": "−1.169"}, {"measurement": "Nes: Udp Glycosyltransferase Activity", "setting": "Enriched In Untreated Nscs", "result": "−0.9459"}, {"measurement": "Nes: Acid Amino Acid Ligase Activity", "setting": "enriched in treated NSCs", "result": 0.7777}, {"measurement": "Nes: Actin Binding", "setting": "enriched in treated NSCs", "result": 0.7455}, {"measurement": "Nes: Actin Filament Binding", "setting": "enriched in treated NSCs", "result": 1.029}, {"measurement": "Nes: Active Transmembrane Transporter Activity", "setting": "enriched in treated NSCs", "result": 0.8495}, {"measurement": "Nes: Adenyl Nucleotide Binding", "setting": "enriched in treated NSCs", "result": 0.9485}, {"measurement": "Nes: Adenyl Ribonucleotide Binding", "setting": "enriched in treated NSCs", "result": 0.9696}, {"measurement": "Nes: Anion Transmembrane Transporter Activity", "setting": "enriched in treated NSCs", "result": 1.216}, {"measurement": "Nes: Atp Binding", "setting": "enriched in treated NSCs", "result": 0.8813}, {"measurement": "Nes: Calmodulin Binding", "setting": "enriched in treated NSCs", "result": 0.7204}, {"measurement": "Nes: Carbon Oxygen Lyase Activity", "setting": "enriched in treated NSCs", "result": 0.4048}, {"measurement": "Nes: Cation Channel Activity", "setting": "enriched in treated NSCs", "result": 0.9023}, {"measurement": "Nes: Cation Transmembrane Transporter Activity", "setting": "enriched in treated NSCs", "result": 1.013}, {"measurement": "Nes: Cysteine Type Endopeptidase Activity", "setting": "enriched in treated NSCs", "result": 1.621}, {"measurement": "Nes: Cysteine Type Peptidase Activity", "setting": "enriched in treated NSCs", "result": 1.575}, {"measurement": "Nes: Deoxyribonuclease Activity", "setting": "enriched in treated NSCs", "result": 1.357}, {"measurement": "Nes: Endonuclease Activity", "setting": "enriched in treated NSCs", "result": 0.5289}]}
